In patent US4460594A, “Bicyclo-hetero-alkylene-1-piperidines, pharmaceutical compositions thereof and methods of use thereof” (Beecham Group p.l.c., priority 1981, dated 1984):
Where a name gives a salt, the structure may show the parent alone.

How the values were obtained:
dopamine receptor [1] = biological target: T1, dopamine receptor (Rattus norvegicus, UniProt P61169); test: displacement of 3H-Spiperone, dopamine receptor labelling; format: binding
T1 construct: from tissue
Excerpt: (§1) α-Adrenoceptor and dopamine receptors were labelled using methods similar to those previously reported [see S. Lazareno and S. R. Nahorski, Communication presented to Brit. Pharm. Soc., Bradford, 74 (1981), and P. Greengrass and R. Bremer, Eur. J. Pharmacol 55, 323 (1979)].

dopamine receptor [2] = biological target: T1, dopamine receptor; test: displacement of 3H-Domperidone, dopamine receptor labelling; format: binding
Excerpt: as §1

α-Adrenoceptor [3] = test: displacement of 3H-Yohimbine, α-adrenoceptor labelling; format: binding
Excerpt: as §1

α-Adrenoceptor [4] = test: displacement of 3H-Prazosin, α-adrenoceptor labelling; format: binding
Excerpt: as §1

[5] = test system: presynaptic dopaminergic autoreceptors; test: Inhibition of Spontaneous Climbing in the Mouse; format: in vivo; conditions: 10 minute period commencing 3 minutes after administration; for % Inhibition of Spontaneous Climbing Behaviour in Mice: at 0.2 mg/kg subcutaneous; for ID50, Inhibition of Spontaneous Climbing Behaviour in Mice: subcutaneous
Description: It is believed that this inhibitory effect is mediated by stimultion of presynaptic dopaminergic autoreceptors, i.e. receptors whose stimulation results in inhibition of dopamine synthesis and electrical activity of dopamine neurones. Spontaneous climbing behavior was assessed by the method of M. P. Martres et al., Brain Res. 136, 319 (1977).
This involves the monitoring of the frequency of climbing behaviour of mice in inverted food hoppers over a 10 minute period commencing 3 minutes after subcutaneous administration of compound.
A climb is defined as the mouse having all four feet off the ground. Experiments are carried out with a minimum of 5 groups of 10 mice, one group acting as control. […] The ID50 value is calculated using the Litchfield and Wilcoxon technique and is defined as the concentration of drug which would be expected to reduce spontaneous climbing of a group of mice by 50%.

[6] = 3H-Spiperone, read-out: INHIBITION CONSTANT Ki, 3H-Spiperone
[7] = 3H-Domperidone, read-out: INHIBITION CONSTANT Ki, 3H-Domperidone
[8] = read-out: INHIBITION CONSTANT Ki, 3H-Yohimbine
[9] = read-out: INHIBITION CONSTANT Ki, 3H-Prazosin

T1 sequence (P61169 whole entry): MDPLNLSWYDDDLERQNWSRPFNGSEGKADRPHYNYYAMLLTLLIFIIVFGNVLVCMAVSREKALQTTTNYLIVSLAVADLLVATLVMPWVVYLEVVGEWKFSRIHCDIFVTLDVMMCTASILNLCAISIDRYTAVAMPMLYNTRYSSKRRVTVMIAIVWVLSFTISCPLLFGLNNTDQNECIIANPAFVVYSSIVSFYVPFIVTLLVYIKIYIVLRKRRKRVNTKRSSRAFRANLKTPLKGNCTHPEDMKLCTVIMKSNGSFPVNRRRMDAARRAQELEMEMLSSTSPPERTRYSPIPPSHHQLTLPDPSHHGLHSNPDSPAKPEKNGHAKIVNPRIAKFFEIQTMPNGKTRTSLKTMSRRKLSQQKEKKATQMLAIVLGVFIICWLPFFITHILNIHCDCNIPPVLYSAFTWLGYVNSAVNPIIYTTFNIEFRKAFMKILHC

With NC1CCc2c(ccc(O)c2O)C1 (stereo not drawn) [A-5,6-DTN] the Ki (dopamine receptor [1]; [6]) was 520 nM, the Ki (dopamine receptor [2]; [7]) was 240 nM and the Ki (α-Adrenoceptor [3]; [8]) was 690 nM. It also gave a Ki (α-Adrenoceptor [4]; [9]) of 16000 nM.

NC1CCc2cc(O)c(O)cc2C1 (stereo not drawn) [A-6,7-DTN] was tested, and the Ki (dopamine receptor [1]) was 130 nM, the Ki (dopamine receptor [2]) was 12 nM and the Ki (α-Adrenoceptor [3]; read-out: […] Ki, 3H-Yohimbine) was 560 nM. For the same compound, the Ki (α-Adrenoceptor [4]; read-out: […] Ki, 3H-Prazosin) was 10000 nM.

Br.Oc1cccc(C2CCCN(Cc3c(Br)oc4ccccc34)C2)c1 (stereo not drawn) [Compound 11, 3-[1-(2-bromo-3-benzofurylmethyl)-3-piperidyl]phenol hydrobromide] was tested, and the “% Inhibition of Spontaneous Climbing Behaviour in Mice” value (“% Inhibition” for short) [5] was 24%.

For Oc1cccc(C2CCCN(Cc3coc4ccccc34)C2)c1 (stereo not drawn) [Compound 12, 3-[1-(3-Benzofurylmethyl)-3-piperidyl]phenol hydrobromide hemihydrate], the “% Inhibition” value [5] was 23%.

For Oc1cccc(C2CCCN(CCc3cc4ccccc4o3)C2)c1 (stereo not drawn) [Compound 13, 3-(1-[2-(2-Benzofuryl)ethyl]-3-piperidyl)phenol hydrobromide hemihydrate], the “ID50, Inhibition of Spontaneous Climbing Behaviour in Mice” value (“ID50, Inhibition” for short) [5] was 0.29 mg/kg.

Br.Oc1cccc(C2CCCN(Cc3cc4ccccc4o3)C2)c1 (stereo not drawn) [Compound 14, 3-[1-(2-benzofurylmethyl)-3-piperidyl]phenol hydrobromide] was tested, and the “ID50, Inhibition” value [5] was 1.7 mg/kg.

With Oc1cccc(C2CCCN(CC3Cc4ccccc4O3)C2)c1 (stereo not drawn) [Compound 30, 3-(1-[(2,3-Dihydro-2-benzofuranyl)methyl]-3-piperidinylphenol) hydrobromide hydrate] the “ID50, Inhibition” value [5] was 0.09 mg/kg, the Ki (dopamine receptor [1]; [6]) was 200 nM and the Ki (dopamine receptor [2]; [7]) was 48 nM. For the same compound, the Ki (α-Adrenoceptor [3]; [8]) was 13 nM and the Ki (α-Adrenoceptor [4]; [9]) was 210 nM.

Oc1cccc(C2CCCN(CCc3c[nH]c4ccccc34)C2)c1 (stereo not drawn) [Compound 34, 3-(1-[2-(1H-3-Indolyl)ethyl]-3-piperidyl)phenol] was tested, and the “% Inhibition” value [5] was 52%.
